# Assay results as given in publication PMC6696315, “Inhibiting Acetylcholinesterase to Activate Pleiotropic Prodrugs with Therapeutic Interest in Alzheimer’s Disease” (Molecules, 2019).
# How the values were obtained:
# human 5-HT4R = molecular target: T1, human 5-HT4R (Homo sapiens, UniProt Q13639); assay: 5-HT4R radioligand displacement assay ([3H]-GR113808); type: binding
# T1 construct: purchased Eurofins HTS110M
# Experimental: All the synthesized phenolic derivatives and their carbamates were evaluated as potential inhibitors of human AChE, using the Ellman assay, as well as potential ligands for human 5-HT4R using a radioligand displacement assay. […].
# For competition studies, 2.5 µg of proteins (5-HT4(b) membrane preparations, HTS110M, Eurofins. Eurofins’ 5-HT4(b) membrane preparations are crude membrane preparations made from their proprietary stable recombinant cell lines to ensure high-level of GPCR surface expression.) were incubated in duplicate at 25 °C for 60 min in the absence or the presence of 10^−6 or 10^−8M of each drug (9 was used as a reference standard) and 0.2 nM [^3H]-GR113808 (NET 1152, Perkin Elmer) in 25 mM Tris buffer (pH 7.4, 25 °C). At the end of the incubation, homogenates were filtered through Whatman GF/C filters (Alpha Biotech) pre-soaked with 0.5% polyethylenimine using a Brandel cell harvester. Filters were subsequently washed three times with 1 mL of ice-cold 25 mM Tris buffer (pH 7.4, 4 °C). Non-specific binding was evaluated in parallel in the presence of 30 µM serotonin. For some of these compounds, affinity constants were calculated from five-point inhibition curves using the GraphPad Prism 6 software and expressed as Ki ± SD.
# AChE = AChE (Homo sapiens, UniProt P22303); assay: AChE inhibition, Ellman assay; type: biochemical; parameters: AChE from human erythrocytes; purchased Sigma Aldrich; host or cells: human erythrocytes (natural source); conditions: (h)AChE IC50, Ellman assay; mean ± SEM of at least two experiments
# Chain of AChE (P22303 32-617 isoform P22303-2 limits assumed): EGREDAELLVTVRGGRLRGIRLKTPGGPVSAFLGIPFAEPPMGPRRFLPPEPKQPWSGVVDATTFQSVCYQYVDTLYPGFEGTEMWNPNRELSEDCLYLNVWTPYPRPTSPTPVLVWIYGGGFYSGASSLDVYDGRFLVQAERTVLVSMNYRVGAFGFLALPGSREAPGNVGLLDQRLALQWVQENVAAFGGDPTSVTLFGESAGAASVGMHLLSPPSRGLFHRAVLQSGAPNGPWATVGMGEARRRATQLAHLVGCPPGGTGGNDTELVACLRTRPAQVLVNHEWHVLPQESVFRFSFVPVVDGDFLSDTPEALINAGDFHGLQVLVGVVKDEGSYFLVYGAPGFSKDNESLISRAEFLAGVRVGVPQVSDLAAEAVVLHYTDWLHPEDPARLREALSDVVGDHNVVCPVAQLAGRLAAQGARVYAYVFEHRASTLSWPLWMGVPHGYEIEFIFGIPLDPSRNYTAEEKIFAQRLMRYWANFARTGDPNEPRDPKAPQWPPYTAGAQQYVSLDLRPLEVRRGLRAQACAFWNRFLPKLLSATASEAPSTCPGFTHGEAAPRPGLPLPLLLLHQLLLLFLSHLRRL
# Experimental: All the synthesized phenolic derivatives and their carbamates were evaluated as potential inhibitors of human AChE, using the Ellman assay, as well as potential ligands for human 5-HT4R using a radioligand displacement assay.
# The inhibitory capacity of compounds on AChE biological activity was evaluated through the use of the spectrometric method of Ellman. Acetylthiocholine iodide and 5,5-dithiobis-(2-nitrobenzoic) acid (DTNB) were purchased from Sigma Aldrich. AChE from human erythrocytes (buffered aqueous solution, ≥500 units/mg protein (BCA), Sigma Aldrich, St. Louis, MO, USA) was diluted in 20 mM HEPES buffer pH 8, 0.1% Triton X-100 such as to have enzyme solution with 0.25 unit/mL enzyme activity. In the procedure, 100 μL of 0.3 mM DTNB dissolved in a phosphate buffer with pH 7.4 were added into the 96-well plates followed by 50 μL of the test compound solution and 50 μL of enzyme (0.05 U final). After 5 min of preincubation at 25 °C, the reaction was then initiated by the injection of 50 μL of 10 mM acetylthiocholine iodide solution. […] Assays were performed with a blank containing all components except acetylthiocholine, in order to account for non-enzymatic reactions. The reaction slopes were compared and the percent inhibition due to the presence of test compounds was calculated by the following expression: 100 − (vi/v0 × 100), where vi is the rate calculated in the presence of inhibitor and v0 is the enzyme activity.
# T1 sequence (Q13639 whole entry): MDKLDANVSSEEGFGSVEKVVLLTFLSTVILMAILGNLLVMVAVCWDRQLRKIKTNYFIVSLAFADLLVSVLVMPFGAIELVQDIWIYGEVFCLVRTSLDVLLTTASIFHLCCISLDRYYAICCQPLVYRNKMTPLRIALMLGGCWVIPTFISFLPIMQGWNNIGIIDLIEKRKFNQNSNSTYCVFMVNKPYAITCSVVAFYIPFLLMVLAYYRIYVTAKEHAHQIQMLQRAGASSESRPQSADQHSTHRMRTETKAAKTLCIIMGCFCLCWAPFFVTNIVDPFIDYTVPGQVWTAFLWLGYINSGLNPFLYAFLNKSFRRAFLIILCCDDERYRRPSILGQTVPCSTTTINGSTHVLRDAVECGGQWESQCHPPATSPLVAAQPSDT
smiles,measurement,setting,value
"CCN(C)C(=O)Oc1cccc(CN2CCC(CCC(=O)c3cc(Cl)c(N)cc3OC)CC2)c1.O=C(O)/C=C/C(=O)O [Compound 20, [3-[[4-[3-(4-Amino-5-chloro-2-methoxyphenyl)-3-oxopropyl]-1-piperidyl]methyl]phenyl] N-ethyl-N-methyl-carbamate fumaric acid salt]",(h)5-HT4R % Inhibition at 10^−8 M,human 5-HT4R; 10^−8 M,16%
same,5-HT4R affinity,human 5-HT4R; result in words,devoid of any activity towards 5-HT4R
same,IC50,AChE,6.07 ± 0.404 µM
